The numbers were not newly measured in patent publication US20080275118A1, “HEALTH AND COSMETIC COMPOSITION AND REGIME FOR STIMULATING HAIR GROWTH AND THICKENING ON THE HEAD, INCLUDING THE SCALP, EYELASHES, AND EYEBROWS, AND WHICH DISCOURAGES HAIR LOSS” (priority 2008, published 2008), which cites them from elsewhere.

SMILES strings stand for the structures.

In the data set the test system is scalp hair. As to conditions: in man, tests carried out on the scalp; Roenigk 1988.

For the compound `C=CC(O)(C/C=C/[C@H]1[C@H](O)CC(=O)[C@@H]1C/C=C\CCCC(=O)OC)CCCC` (stereo partly shown) [viprostol], the hair density result is on record as “increasing hair density”.
